Laboratory results as given in PMC8560939 (Scientific Reports, 2021).
Like-named read-outs stand apart in the source and are kept apart here. Values belong to the molecule of their own block, whether it stands above or below them.

Columns and labels:
LDHB [1] = target: T1, LDHB (Homo sapiens, UniProt P07195); experiment: Time-dependent inhibition (pre-incubation of AXKO-0046 and LDHB); type: biochemical; settings: pre-incubation with LDHB up to 120 min
T1 construct: purchased R&D Systems
Procedure: We then assessed whether there was any time dependence to the onset of inhibition by varying the time for which AXKO-0046 and LDHB were pre-incubated before initiating the enzymatic reaction.
Supplementary Figure 4. Time-dependent inhibition of LDHB activity by AXKO-0046. Time-dependent inhibition was measured by pre-incubating AXKO-0046 and LDHB for 0, 30, 60, or 120 min, as indicated, before initiating the LDHB reaction. Data are shown as mean (n = 2).

human LDHA = target: T2, human LDHA (Homo sapiens, UniProt P00338); experiment: LDHA enzyme assay by RapidFire-MS; type: biochemical
T2 construct: purchased R&D Systems
Procedure: (§1) To compare the selectivity potency of the 22 selected compounds, we evaluated the compounds against human LDHB and LDHA by RF-MS. […] The Km value was also determined for the LDHA reaction. All EC50 values are listed in Supplementary Table 1.
These concentrations were chosen based on fitting to the Michaelis–Menten model with the Km values (Supplementary Figure S2).
(§2) For RF-MS (Agilent, Wakefield, MA, USA), the enzyme reaction solution (5 μL) was aspirated directly from the quenched assay plates and loaded onto a C8 solid-phase extraction cartridge (Agilent) with a mobile phase of water containing DHAA (5 mM) for 2500 ms at a flow rate of 1.25 mL/min. The analytes were then co-eluted into the mass spectrometer using water:acetonitrile:acetone (2:1:1) containing ammonium acetate (5 mM) for 5000 ms at a flow rate of 1.0 ml/min. […] The extracted ion chromatograms for each transition were integrated and processed using RapidFire Integrator (Agilent). The data for each well were normalised using the monitoring product conversion with the ratio of AUCproduct / (AUCproduct + AUCsubstrate).
To determine the compound activities, percent inhibition data normalised to 0% (DMSO only) and 100% inhibition (no-enzyme control) wells were calculated. […]
The reaction product was measured by RF-MS. […] The quality and robustness of the screening campaign process were determined by analysing the Z’ factor.

LDHB [2] = target: T1, LDHB; experiment: Substrate-competition assay (varying NADH or pyruvate); type: biochemical; settings: for Vmax (NADH): NADH titration; for Vmax (Pyruvate): pyruvate titration
Procedure: To elucidate the underlying inhibitory mechanism, substrate competition assays were performed. LDHB inhibitory activity for AXKO-0046 was assessed at different concentrations of the substrate.
Moreover, the Km and Vmax values for LDHB were determined in the presence AXKO-0046. As the AXKO-0046 concentration increased in the reaction, both Vmax and Km decreased proportionally (Supplementary Fig. 3 and Table 1). The Lineweaver–Burke plot lines were nearly parallel (Fig. 3c,d), indicating uncompetitive inhibition with a strong preference for inhibiting the enzyme–substrate complex.
A solution of AXKO-0046 (0.00001, 0.0001, 0.001, 0.01, 0.1, 1, 10, and 100 μM) with 0.25 nM LDHB was then added. The enzymatic reactions were performed at room temperature for 15 min in triplicate. At each inhibitor concentration, the dependence of the initial reaction velocity on the substrate concentration was fitted to a nonlinear Michaelis–Menten model to obtain the Km and Vmax values using GraphPad Prism. Lineweaver–Burk plots were generated by superimposing the data of 1/[velocity] and 1/[substrate] and the line corresponding to the Michaelis–Menten nonlinear fit.

Cellular activity = type: cell-based
LDHB [3] = target: T1, LDHB; experiment: LDHB enzyme assay by RapidFire-MS (NADH to NAD+ conversion); type: biochemical; settings: RF-MS
Procedure: as §1
We screened for compounds (final concentration: 10 μM) within pooled libraries consisting of more than 345,000 compounds. Each compound in DMSO (1 mM) was dispensed into 384-well V base plates (100 nL/well) using an Echo 555 acoustic dispenser (Labcyte, Sunnyvale, CA, USA). LDHB (5 μL) was diluted in assay buffer (20 mM Tris [pH 7.5], containing 2 mM DTT, 0.005% Triton X100, and 0.005% BSA) and dispensed into assay plates (final concentration: 0.25 nM). […] After incubation for 30 min at room temperature, acetonitrile (10 μL) and water (50 μL) were added to quench the reaction. All additions were performed using a Multidrop Combi (Thermo Fisher Scientific, Waltham, MA, USA). Assay plates were sealed and centrifuged (2700× g for 10 min) before storage at − 20 °C.
as §2
To determine the compound activities, percent inhibition data normalised to 0% (DMSO only) and 100% inhibition (no-enzyme control) wells were calculated. Data analysis was performed using the Tibco Spotfire (Boston, MA, USA) packages.
(§3) The reaction product was measured by RF-MS. To estimate the Km and Vmax values, the initial rates were fit to the Michaelis–Menten equation. EC50 and Hill slope calculation and curve fitting using four-parameter fits were performed using GraphPad Prism v6.07 (GraphPad Software, San Diego, CA, USA) or XLfit (IDBS, Guildford, UK) with nonlinear regression analysis, wherein the EC50 value equaled the concentration at which the inflection point of the fitted model was reached. The quality and robustness of the screening campaign process were determined by analysing the Z’ factor.

CC(=O)C(=O)O = test system: T3, CC(=O)C(=O)O; experiment: Determination of substrate Km for LDHB (assay optimisation); type: biochemical, human; settings: other: 500 µM NADH, increasing pyruvate
T3 construct: purchased R&D Systems
Procedure: Next, we optimised the assay conditions of RF-MS. Titration of human LDHB was examined at concentrations ranging from 0.0625 to 1 nM. […] We used 0.25 nM LDHB throughout assay development and screening to ensure enzyme activation. […] The Km values obtained from the two assays were consistent with the reported values for LDHB[15],[16].
as §3
Data were fitted to the Michaelis–Menten equations to obtain the kinetic constant Km using GraphPad Prism. Data are shown as mean ± standard deviation (n = 4).

[4] = test system: NC(=O)C1=CN([C@@H]2O[C@H](COP(=O)(O)OP(=O)(O)OC[C@H]3O[C@@H](n4cnc5c(N)ncnc54)[C@H](O)[C@@H]3O)[C@@H](O)[C@H]2O)C=CC1; experiment: purified protein, by the assay type; settings: other: 500 μM pyruvate, increasing NADH
[5] = read-out: EC50 (μM), LDHB inhibitory activity of AXKO-0046 derivatives

T1 sequence (P07195 whole entry): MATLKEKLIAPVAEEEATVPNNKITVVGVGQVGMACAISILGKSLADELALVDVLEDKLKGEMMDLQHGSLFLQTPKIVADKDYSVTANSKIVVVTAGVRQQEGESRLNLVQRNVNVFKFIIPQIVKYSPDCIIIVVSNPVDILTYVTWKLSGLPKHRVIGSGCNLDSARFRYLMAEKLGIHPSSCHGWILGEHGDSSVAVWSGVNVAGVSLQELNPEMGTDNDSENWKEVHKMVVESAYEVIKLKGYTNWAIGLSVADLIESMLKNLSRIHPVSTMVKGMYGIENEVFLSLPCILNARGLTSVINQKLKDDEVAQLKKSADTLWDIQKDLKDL

inhibition of LDHA (concentration response curve) (human LDHA): did not inhibit LDHA
mode of inhibition with respect to NADH and pyruvate (LDHB [2]): uncompetitive with both substrates
Vmax (NADH) (LDHB [2]; AXKO-0046 0.00001 µM, 100 μM pyruvate): 10.1 µM/min
Vmax (Pyruvate) (LDHB [2]; AXKO-0046 0.00001 µM, 100 μM NADH): 7.3 µM/min
Vmax (NADH) (LDHB [2]; AXKO-0046 0.0001 µM, 100 μM pyruvate): 10.7 µM/min
Vmax (Pyruvate) (LDHB [2]; AXKO-0046 0.0001 µM, 100 μM NADH): 6.9 µM/min
Vmax (NADH) (LDHB [2]; AXKO-0046 0.001 µM, 100 μM pyruvate): 9.7 µM/min
Vmax (Pyruvate) (LDHB [2]; AXKO-0046 0.001 µM, 100 μM NADH): 6.5 µM/min
Vmax (NADH) (LDHB [2]; AXKO-0046 0.01 µM, 100 μM pyruvate): 8.3 µM/min
Vmax (Pyruvate) (LDHB [2]; AXKO-0046 0.01 µM, 100 μM NADH): 6.6 µM/min
Vmax (NADH) (LDHB [2]; AXKO-0046 0.1 µM, 100 μM pyruvate): 6.0 µM/min
Vmax (Pyruvate) (LDHB [2]; AXKO-0046 0.1 µM, 100 μM NADH): 4.3 µM/min
Vmax (NADH) (LDHB [2]; AXKO-0046 1 µM, 100 μM pyruvate): 2.9 µM/min
Vmax (Pyruvate) (LDHB [2]; AXKO-0046 1 µM, 100 μM NADH): 2.0 µM/min
Vmax (NADH) (LDHB [2]; AXKO-0046 10 µM, 100 μM pyruvate): 2.1 µM/min
Vmax (Pyruvate) (LDHB [2]; AXKO-0046 10 µM, 100 μM NADH): 1.6 µM/min
Vmax (NADH) (LDHB [2]; AXKO-0046 100 µM, 100 μM pyruvate): 2.2 µM/min
Vmax (Pyruvate) (LDHB [2]; AXKO-0046 100 µM, 100 μM NADH): 1.6 µM/min
IC50 (LDHB [2]; NADH 30 μM, 100 μM pyruvate): 702 nM
IC50 (LDHB [2]; NADH 50 μM, 100 μM pyruvate): 330 nM
IC50 (LDHB [2]; NADH 100 μM, 100 μM pyruvate): 223 nM
IC50 (LDHB [2]; NADH 200 μM, 100 μM pyruvate): 94.2 nM
IC50 (LDHB [2]; Pyruvate 30 μM, 100 μM NADH): 197 nM
IC50 (LDHB [2]; Pyruvate 50 μM, 100 μM NADH): 114 nM
IC50 (LDHB [2]; Pyruvate 200 μM, 100 μM NADH): 96.3 nM
EC50 (LDHB [3]; four-parameter fit, read-out: EC50 for LDHB): 0.042 µM
Molecule: c1ccc(CNCCc2c(CNC3CCCCCC3)[nH]c3ccccc23)cc1 [AXKO-0046, N-({3-[2-(benzylamino)ethyl]-1H-indol-2-yl}methyl) cycloheptanamine]
inhibition potential with pre-incubation time (LDHB [1]): did not increase with pre-incubation time
cellular activity (Cellular activity): no potent cellular activity

EC50 (LDHB [3]; [5]): 8.3 µM
Molecule: CN(CCc1c(CN(C)C2CCCCCC2)[nH]c2ccccc12)Cc1ccccc1 [AXKO-0058]

EC50 (LDHB [3]; [5]): 0.25 µM
Molecule: CN(CCc1c(CNC2CCCCCC2)[nH]c2ccccc12)Cc1ccccc1 [AXKO-0060]

EC50 (LDHB [3]; [5]): > 100 µM
Molecule: Cn1c(CNC2CCCCCC2)c(CCNCc2ccccc2)c2ccccc21 [AXKO-0067]

EC50 (LDHB [3]; [5]): 7.4 µM
Molecule: CN(Cc1[nH]c2ccccc2c1CCNCc1ccccc1)C1CCCCCC1 [AXKO-0077]

Molecule: human LDHB (Homo sapiens)
Km (CC(=O)C(=O)O): 116 µM
Km [4]: 64 µM
